Where two headings read alike, the source gives them in different places.
Experiments:
CYP3A4 mRNA (PXR) [1] = system: CYP3A4 mRNA (PXR)
MDR1 P-glycoprotein mRNA = assay: Northern blot of MDR1 P-glycoprotein expression (Example VI)
From the text: FIG. 31 depicts MDR1 gene expression in LS174T cells as analyzed by Northern blot. […] Total RNA from the colon adenocarcinoma cell line LS174T was isolated and fractionated on a 1% formaldehyde gel and transferred onto a nylon membrane. The RNA blot was hybridized to ^32P-labeled MDR1 cDNA probe (top panel) or 18s rRNA probe for normalization of RNA loading on the gel (bottom panel).
(§1) FIG. 32A: Lanes 1 and 2, primary human hepatocytes; lanes 3 and 4, LS174T cells. FIG. 32B: Lanes 1 and 2, HepG2 cells; lanes 3 and 4, HepG2 that overexpress PXR (Hepg-PXR cells). FIG. 32C: Lanes 1 and 2, Caco-2; lanes 3 and 4, Caco-2 cells that overexpress PXR (Caco-PXR cells).
(§2) Total RNA from the colon adenocarcinoma cell line LS174T was isolated and fractionated on a 1% formaldehyde gel and transferred onto a nylon membrane. The RNA blot was hybridized to ^32-P-labeled MDR1 cDNA probe (top panels), ^32-P-labeled CYP3A4 cDNA probe (middle panels), or 18s rRNA probe for normalization of RNA loading on the gel (bottom panels).
(§3) FIG. 37 depicts MDR1 gene regulation in response to chrysin as studied by Northern blot analysis. […] Total RNA from the hepatocytes was isolated and fractionated on a 1% formaldehyde gel and transferred onto a nylon membrane. The RNA blot was hybridized to ^32-P-labeled MDR1 cDNA probe (top panels), ^32P-labeled CYP3A4 cDNA probe (middle panels), or 18s rRNA probe for normalization of RNA loading on the gel (bottom panels).
Northern Blot analysis for MDR1 P-glycoprotein and CYP3A4 expression: Total RNA was prepared from cells (primary hepatocytes, LS174T, HepG2, or Caco-2) using Trizol reagent (Invitrogen, Carlsbad, Calif.). For Northern blots, 15 micrograms of total RNA was fractionated on a 1% formaldehyde gel and transferred onto a nylon membrane by capillary transfer. A 530-base pair fragment of MDR1 cDNA was obtained from PCR cloning using the sense primer […] The resulting fragment was ^32P-labeled by random priming (Invitrogen, Carlsbad, Calif.) for use as an MDR1 probe. […] All constructs and cDNAs were subjected to sequence analysis. Hybridization was performed with the ExpressHyb system according to the manufacturer's instructions (Clontech, Palo Alto, Calif.).

[2] = system: PXR / mdr1(dr4) response element; assay: Transient transfection mdr1(dr4)-Luc reporter assay with PXR; conditions: Caco-2 cells transiently co-transfected with mdr1(dr4)-Luc and PXR; 48 hours
[3] = system: PXR / mdr1(dr4) response element; assay: Caco-PXR/Pgp-Luc stable cell luciferase assay
Method: (§4) FIG. 35 depicts dose-response behavior to various PXR activators in stable cell lines overexpressing PXR and harboring DR4 response element. FIG. 35A: Results are shown for the stable cell line Hep-PXR/PgpLuc. FIG. 35B: Results are shown for the stable cell line Caco-PXR/PgpLuc.
(§5) Cells were exposed to the test compounds for 48 hours at the concentrations indicated.
(§6) Establishment of stable transformants containing both PXR and reporter plasmid and development of high throughput bioassay for PXR-dependent transactivation: The stable transformants Hep-PXR/mdr1(dr4)-Luc and Caco-PXR/mdr1(dr4)-Luc cell lines were generated from the parental cell lines HepG-PXR and Caco-PXR, respectively, according to the following procedure. The parental cell lines HepG-PXR and Caco-PXR, which overexpress PXR, were stably transfected with the luciferase reporter plasmid mdr1(dr4)-Luc. The transfected cells were cultured in DMEM (HepG-PXR cells) or in IMEM (Caco-PXR cells), both media supplemented with 10% fetal bovine serum and neomycin (700 micrograms per milliliter).
(§7) For the induction assay, stable transformants were seeded in 96-wells plates at a density of 1×10^4 cells per well and allowed to recover overnight. Plates were treated with test compounds at varying concentrations, using 3 replicates per dose. After 48 hours of exposure to the test compound, cells were washed with phosphate buffered saline, lysis buffer was applied to the wells, and luciferase substrate added. Following 10 minutes for light adaptation, luminescence was monitored according to the manufacturer's instructions (Packard kit, Biomed).

[4] = system: PXR / mdr1(dr4) response element; conditions: human, 48 h
[5] = system: PXR / mdr1(dr4) response element; assay: Hep-PXR/Pgp-Luc stable cell luciferase assay
Method: as §4, §5
FIG. 36 depicts the effect of environmental and botanical chemicals on luciferase activity in the stable cell line Hep-PXR/PgpLuc. Cells were inoculated into 96-well plates at a density of 2×10^4 cells per well. After overnight recovery, cells were treated with the test compounds at the concentrations indicated for 48 hours.
as §6, §7

CYP3A4 mRNA = conditions: human, 48 h, 25 µM
From the text: as §1, §2, §3
Northern Blot analysis for MDR1 P-glycoprotein and CYP3A4 expression: Total RNA was prepared from cells (primary hepatocytes, LS174T, HepG2, or Caco-2) using Trizol reagent (Invitrogen, Carlsbad, Calif.). […]

[6] = system: AhR (dioxin response elements); assay: in vitro; conditions: human, fold induction of luciferase activity above DMSO, DRE12-6 cells, 28 hours; TCDD 10 nanomoles per liter, omeprazole 25, 2-AAF 100, DMBA 20 micromoles per liter
CYP3A4 mRNA (PXR) [7] = assay: Northern blot of CYP3A4 in stable cells overexpressing PXR (Hepg-PXR); conditions: stable cells that overexpress PXR

CC(=O)[C@H]1[C@H](C#N)C[C@H]2[C@@H]3CC=C4C[C@@H](O)CC[C@]4(C)[C@H]3CC[C@@]21C [PCN, pregnenolone 16 alpha-carbonitrile]
fold increase in luciferase activity above DMSO, single concentrations (FIG. 15) (CYP3A4 enhancer (PXRE)): less than one | fold increase in luciferase activity above DMSO, single concentrations (FIG. 14) (hPXR / CYP3A4 enhancer): less than two | CYP3A4 induction by Northern blot (in words) (CYP3A4 mRNA (PXR) [1]): not | MDR1 expression in LS174T cells (in words) (MDR1 P-glycoprotein mRNA; LS174T cells, 48 hours): only a slightly increase | fold increase in luciferase activity [2]: only a minor increase

COc1ccc2[nH]c([S+]([O-])Cc3ncc(C)c(OC)c3C)nc2c1 (stereo not shown) [omeprazole]
dose dependence of luciferase induction (in words) [3]: dose-dependent luciferase induction | fold increase in luciferase activity [4]: 3-6 fold | dose dependence of luciferase induction (in words) [5]: dose-dependent luciferase induction

O=c1cc(-c2ccccc2)oc2cc(O)cc(O)c12 [chrysin]
CYP3A4 expression in primary hepatocytes (in words) (CYP3A4 mRNA): induce the expression of both MDR1 and CYP3A4 | fold increase in luciferase activity ([5]; human, 48 h): 5 fold | fold induction [6]: 4.2 | MDR1 P-glycoprotein expression in primary human hepatocytes (in words) (MDR1 P-glycoprotein mRNA; human, 48 h, 25 µM): induce the expression of both MDR1 and CYP3A4

CC[C@H](C)C(=O)O[C@H]1CCC=C2C=C[C@H](C)[C@H](CC[C@@H]3C[C@@H](O)CC(=O)O3)[C@H]21 [mevastatin]
dose dependence of luciferase induction (in words) [3]: dose-dependent luciferase induction | strength of luciferase induction (in words) [3]: strongly induce | CYP3A4 induction by Northern blot (in words) (CYP3A4 mRNA (PXR) [7]): efficiently activated | dose dependence of luciferase induction (in words) [5]: dose-dependent luciferase induction

— US20040077080A1, “Compositions and methods for induction of proteins involved in xenobiotic metabolism” (priority 2000, published 2004)
